We go through 51 compounds from US5585492A, “LTA4 Hydrolase inhibitors” (priority 1994, dated 1996).

Like-named read-outs stand apart in the source and are kept apart here.

In assay [1] the target is T1, recombinant human LTA4 hydrolase (Homo sapiens, UniProt P09960).
T1 construct: made in house; host or cells: Spodoptera frugiperda Sf-9 cells, baculovirus (AcNPV) expression vector
T1 sequence (P09960 1-611): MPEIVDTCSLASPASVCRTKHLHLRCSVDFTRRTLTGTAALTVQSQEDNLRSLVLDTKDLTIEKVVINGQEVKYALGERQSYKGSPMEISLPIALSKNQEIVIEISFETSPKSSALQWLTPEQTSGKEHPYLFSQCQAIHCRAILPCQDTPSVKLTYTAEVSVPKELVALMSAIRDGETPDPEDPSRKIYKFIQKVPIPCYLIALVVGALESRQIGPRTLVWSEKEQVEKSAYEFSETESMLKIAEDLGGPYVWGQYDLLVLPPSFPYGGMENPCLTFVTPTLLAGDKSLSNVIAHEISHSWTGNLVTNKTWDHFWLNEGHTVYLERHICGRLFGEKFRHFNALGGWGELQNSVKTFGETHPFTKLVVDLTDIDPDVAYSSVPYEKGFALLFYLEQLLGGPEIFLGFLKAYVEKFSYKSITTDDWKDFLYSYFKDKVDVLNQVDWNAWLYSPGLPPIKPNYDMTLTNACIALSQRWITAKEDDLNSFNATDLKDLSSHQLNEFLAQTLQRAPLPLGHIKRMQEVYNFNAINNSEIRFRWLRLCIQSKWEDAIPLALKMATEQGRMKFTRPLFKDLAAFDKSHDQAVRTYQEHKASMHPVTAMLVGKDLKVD
Briefly: Recombinant Human LTA4 Hydrolase Assay for LTA4 Hydrolase Inhibitor Activity (LTB4 by enzyme-linked immunoassay). The settings on record: for IC50: read-out: Recombinant Human LTA4 Hydrolase Assay IC50 LTA4H. Type of assay: biochemical. Here is the method: Compounds of the present invention were tested for LTA4 hydrolase inhibitor activity against recombinant human LTA4 hydrolase (rhLTA4 H). […] Briefly, LTA4 hydrolase encoding DNA was amplified by polymerase chain reaction using a pair of oligonucleotide primers based on the nucleotide sequence from the 5'-end, and the complement of the 3'-end, of the coding region of the LTA4 hydrolase gene, the nucleotide sequence of which gene is known. […] A λgtll human placental cDNA library (Clonetech, Palo Alto, Calif.) provided the nucleic acid template.
One or more predetermined amounts of a compound of the invention were incubated in assay buffer (0.1M potassium phosphate, 5 mg/ml fatty acid free BSA, 10% DMSO, pH 7.4) for 10 minutes at room temperature with 250 ng of recombinant hLT4 H to allow binding, if any, between the enzyme and inhibitor. The stock enzyme solution was 1 mg/ml LTA4 hydrolase, 50 mM Tris, pH 8.0, 150 mM NaCl, 2.5 mM beta-mercaptoethanol, 50% glycerol. […] LTA4 (i.e., substrate) was prepared from the methyl ester of LTA4 (Biomol, Inc., Plymouth Meeting, Pa.) by treating the methyl ester with 30 molar equivalents of LiOH at room temperature for 18 hours. The LTA4 substrate in its free acid form was kept frozen at -80° C. until needed. […] Each reaction was carried out at room temperature for 10 minutes. The reaction was stopped by diluting 25 μl of the reaction mixture with 500 μl of the assay buffer without DMSO. LTB4 was quantified in the diluted sample by a commercially available enzyme-linked immunoassay [Caymen Chemical Co., Ann Arbor, Mich.] using the method recommended in the manufacturer's instructions and compared to the amount of LTB4 produced in a negative control (i.e., essentially identical conditions except without addition of an inhibitor compound). The IC50 was routinely calculated from the data produced.

Assay [2] relates to LTB4 production in human blood. The assay is described as follows: Inhibition of Calcium Ionophore-Induced LTB4 Production in Human Blood (HWB). Type of assay: cell-based. The conditions noted are these: Homo sapiens, read-out: Inhibition of Calcium Ionophore-Induced LTB4 Production in Human Blood IC50 HWB. Here is the method:
One or more concentrations of the leukotriene A4 hydrolass inhibitor compounds being tested were prepared (diluted in DMSO) and 2 μl added and gently mixed with the diluted whole blood. After incubating for 15 minutes at 37° C. in a humidified incubator, calcium ionophore A23187 (Sigma Chemical Co., St. Louis, Mo.) was added to a final concentration of 20 mcg/ml and the incubation continued under the same conditions for an additional 10 minutes to allow LTB4 formation. The reaction was terminated by centrifugation (833 g, 10 minutes at 4° C.) and supernatant were analyzed for LTB4 and thromboxane by commercially available enzyme-linked immunoassays (Caymen Chemical Co., Ann Arbor, Mich.) according to the manufacturer's instructions. The IC50 of each test compound was determined from the amount of inhibition of LTB4 production as compared to an essentially identical assay in which no inhibitor compound was present.

Setting [3] is: human whole blood, A23187 20 mcg/ml.

Consider `c1cc(Cc2ccc(OCCN3CCCC3)cc2)co1` [Example 136], for which the IC50 in assay [1] was determined as 77 nM.

Take `CCOC(=O)C1CCN(CCOc2ccc(Cc3ccc(F)cc3)cc2)CC1` [Example 312]: the inhibition at 100 µM in assay [1] came to 46%.

For the compound `N#CC1CCN(CCOc2ccc(Cc3ccccc3)cc2)CC1` [Example 279], the IC50 in assay [1] was found to be 470 nM.

Regarding `Fc1ccc(Oc2ccc(OCCn3cnc4cccnc43)cc2)cc1` [Example 354A], the inhibition at 3 µM in assay [1] was determined as 51%.

Turning to `CCOC(=O)CNCCCOc1ccc(Cc2ccccc2)cc1` [Example 264], the IC50 amounted to 1100 nM in assay [2] (setting [3]) and 3000 nM in assay [1].

Take `Fc1cc(Cc2ccccc2)ccc1OCCN1CCCC1` [Example 115]: the IC50 in assay [2] (setting [3]) was 190 nM; in assay [1], 60 nM.

`O=C(O)CCNCCCOc1ccc(Cc2ccccc2)cc1` [Example 431]: the figures for the IC50 in assay [2] (setting [3]) and in assay [1] were 280 nM and 140 nM, respectively.

As to `COC(=O)CCNCCOc1ccc(Cc2ccccc2)cc1` [Example 324], the IC50 in assay [2] (setting [3]) was found to be 586 nM; in assay [1] it was 220 nM.

With `C(=C\c1ccc(OCCN2CCCC2)cc1)/c1ccccc1` [Example 46], the IC50 in assay [2] (setting [3]) came out at 1500 nM; in assay [1], 1350 nM.

For `CCOC(=O)CC(NCCOc1ccc(Cc2ccccc2)cc1)c1cccnc1` (centres unmarked) [Example 271], the IC50 was found to be 7980 nM in assay [2] (setting [3]) and 11000 nM in assay [1].

Turning to `Cc1nc(COc2ccc(OCCN3CCCC3)cc2)cs1` [Example 202], the inhibition at 3 µM in assay [1] came to 44%.

On to `c1ccc(Cc2ccc3c(c2)CC(Cn2nc4cccnc4n2)O3)cc1` (centres unmarked) [Example 360B], for which, in assay [1], the inhibition at 100 µM was found to be 19%.

As for `NC(=O)C1CCCN(CCCOc2ccc(Oc3ccccc3)cc2)C1` (centres unmarked) [Example 250], the IC50 is 1770 nM in assay [2] (setting [3]) and 4900 nM in assay [1].

Take `NC(=O)C1CCN(CCOc2ccc(Cc3ccccc3)cc2)C1` (centres unmarked) [Example 425]: the IC50 in assay [2] (setting [3]) was found to be 360 nM; in assay [1] it was 16 nM.

Take `CC(=O)NC1CCN(CCOc2ccc(Cc3ccccc3)cc2)CC1` [Example 238]: the IC50 in assay [2] (setting [3]) came out at 180 nM; in assay [1] it was 50 nM.

As for `O=C1CC2CCCC(C1)N2CCOc1ccc(Cc2ccccc2)cc1` [Example 303], the IC50 in assay [2] stood at 1650 nM; in assay [1] it was 97 nM.

`c1ccc(Cc2ccc(OCCN3CCCCC3)cc2)cc1` [Example 401]: the IC50 in assay [1] amounted to 55 nM.

Turning to `COC[C@@H]1CCCN1CCOc1ccc(Cc2ccccc2)cc1` [Example 400], the IC50 in assay [2] (setting [3]) came out at 380 nM; in assay [1], 60 nM.

For the compound `NC(=O)CC1CCN(CCOc2ccc(Cc3ccccc3)cc2)C1` (centres unmarked) [Example 426], the IC50 was 403 nM in assay [2] (setting [3]) and 210 nM in assay [1].

As to `O=C(O)CCNCCCCOc1ccc(Cc2ccccc2)cc1` [Example 433], the IC50 was determined as 49 nM in assay [2] (setting [3]) and 18 nM in assay [1].

For the compound `CC(C)(C)OC(=O)C1CCCN1CCCOc1ccc(Cc2ccccc2)cc1` (centres unmarked) [Example 260], the inhibition at 3 µM in assay [1] is 14%.

Take `Clc1ccc(Cc2ccc(OCCN3CCCC3)cc2)cc1` [Example 140]: the IC50 in assay [2] (setting [3]) worked out at 1010 nM; in assay [1], 60 nM.

For the compound `O=C(OCc1ccccc1)[C@@H]1CCCN1CCCOc1ccc(Cc2ccccc2)cc1` [Example 228, Phenylmethyl 1-[3-[4-(phenylmethyl)phenoxy]propyl]-L-prolinate], the inhibition at 3 µM in assay [1] amounted to 28%.

`c1ccc(COc2ccc(OCCn3cnc4ccccc43)cc2)cc1` [Example 345]: the inhibition at 3 µM in assay [1] was 35%.

As for `CCOC(=O)CCN(C)CCCOc1ccc(Cc2ccccc2)cc1` [Example 412], the IC50 in assay [2] (setting [3]) turned out to be 240 nM; in assay [1], 190 nM.

`NC(=O)NC1CCN(CCOc2ccc(Cc3ccccc3)cc2)C1` (centres unmarked) [Example 453]: the concentration for half-maximal inhibition (IC50) in assay [2] (setting [3]) stood at 350 nM; in assay [1], 81 nM.

With `c1ccc(Oc2ccc(OCCCn3cnc4ccccc43)cc2)cc1` [Example 343], in assay [1], the inhibition at 3 µM is 40%.

Turning to `c1cc(Cc2ccc(OCCN3CCCC3)cc2)ccn1` [Example 126], the IC50 in assay [1] amounted to 630 nM.

On to `C#CC(CC(=O)OCC)NCCOc1ccc(Cc2ccccc2)cc1` (centres unmarked) [Example 408], for which the inhibition at 100 µM in assay [1] came out at 76%.

As to `Clc1cccc(Cl)c1COc1ccc(OCCN2CCCC2)cc1` [Example 204], the inhibition at 25 µM in assay [1] is 49%.

As for `CC1(CN2CCCC2)Cc2cc(Cc3ccccc3)ccc2O1` (centres unmarked) [Example 285], the IC50 in assay [2] (setting [3]) worked out at 1730 nM; in assay [1], 130 nM.

Consider `COC(=O)C1CCN(CCOc2ccc(Cc3ccccc3)cc2)C1` (centres unmarked) [Example 276], for which the IC50 came to 232 nM in assay [2] (setting [3]) and 4100 nM in assay [1].

On to `O=C(O)c1ccc(-c2ccc(OCCN3CCCC3)cc2)cc1` [Example 63], for which, in assay [1], the inhibition at 25 µM came to 40%.

On to `CC(C)(C)OC(=O)CCNCCCOc1ccc(Cc2ccccc2)cc1` [Example 268], for which the half-maximal inhibitory concentration (IC50) in assay [2] (setting [3]) is 7980 nM. Besides, the inhibition at 3 µM in assay [1] was 53%.

Consider `COc1cccc(Cc2ccc(OCCN3CCCC3)cc2)c1` [Example 127], for which the IC50 stood at 2480 nM in assay [2] (setting [3]) and 840 nM in assay [1].

Regarding `NC(=O)C1CCN(CCCOc2ccc(Cc3ccccc3)cc2)CC1` [Example 226, 1-[3-[4-(phenylmethyl)phenoxy]propyl]-4-piperidinecarboxamide], the inhibition at 100 µM in assay [1] stood at 4%.

With `c1coc(Cc2ccc(OCCN3CCCC3)cc2)c1` [Example 135], in assay [1], the IC50 turned out to be 47 nM.

Turning to `NC(=O)NC1CCN(CCOc2ccc(Cc3ccccc3)cc2)CC1` [Example 456], the IC50 is 440 nM in assay [2] (setting [3]) and 87 nM in assay [1].

On to `NC(=O)C1CCCN(CCCOc2ccc(Cc3ccccc3)cc2)C1` (centres unmarked) [Example 244], for which the inhibition at 100 µM in assay [1] worked out at 15%.

Consider `O=C(COc1ccc(Cc2ccccc2)cc1)N1CCCCC1` [Example 387, 1-(1-piperidinyl)-2-[4-(phenylmethyl)phenoxy]ethanone], for which the results for the IC50 in assay [2] (setting [3]) and in assay [1] were 120 nM and 37 nM, respectively.

Take `c1ccc(Cc2ccc(OCCn3cnc4cccnc43)cc2)cc1` [Example 338C]: in assay [2] (setting [3]), the IC50 is 9150 nM. For the same compound, in assay [1], the inhibition at 3 µM amounted to 34%.

For `c1ccc(Cc2ccc3c(c2)CC(Cn2nnc4cccnc42)O3)cc1` (centres unmarked) [Example 360A], the inhibition at 100 µM in assay [1] was 36%.

With `c1ccc(Cc2ccc3c(c2)CC(Cn2nc4ccncc4n2)O3)cc1` (centres unmarked) [Example 361A], the inhibition at 100 µM in assay [1] turned out to be 24%.

With `c1ccc(Cc2ccc(SCCN3CCCC3)cc2)cc1` [Example 68], the IC50 in assay [1] is 480 nM.

Take `NC(=O)C1CCN(CCOc2ccc(Cc3ccccc3)cc2)CC1` [Example 239]: the IC50 in assay [1] turned out to be 9000 nM.

On to `c1ccc(COc2ccc(OCCn3cnc4cccnc43)cc2)cc1` [Example 346A], for which, in assay [1], the inhibition at 3 µM is 31%.

In the case of `O=C(O)c1ccc(Oc2ccc(OCCN3CCCC3)cc2)cc1` [Example 64], the inhibition at 25 µM in assay [1] amounted to 52%.

As for `O=C(CNCCOc1ccc(Cc2ccccc2)cc1)OCc1ccccc1` [Example 319], the inhibition at 100 µM in assay [1] was determined as 47%.

Turning to `CCOC(=O)C1CCN(CCOc2ccc(Cc3cccnc3)cc2)CC1` [Example 311], the inhibition at 100 µM in assay [1] came to 44%.

In the case of `Cc1ccccc1COc1ccc(OCCN2CCCC2)cc1` [Example 210], the inhibition at 25 µM in assay [1] was 4%.

For `CC1(CN2CCC(C(N)=O)CC2)Cc2cc(Cc3ccccc3)ccc2O1` (centres unmarked) [Example 286], the inhibition at 100 µM in assay [1] was found to be 41%.
